Test systems include SR; SNB-75; UACC-62; A498; SK-MEL-5; Hs-578T; Malme-3M; K562; PC-3; OVCAR-4; RXF 393; A549; EKVX; HOP-92; SK-OV-3; 786-0; BT-549; HCT-116; U-251; NCI-H226.
What all share (assay): NCI-60 cell line screen, 48 h

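These data come from cells grown in 96-well plates and exposed to compound for 48 hours at five concentrations. GI50 marks 50% less growth.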 Active and inactive are the calls of the source. Rule as the data show it: active = GI50 up to about 1.1 µM and inactive = higher.

For `c1ccc(C2=NOC(c3ccccc3)N2C23CC4CC(CC(C4)C2)C3)cc1` (stereo not given), the GI50 in the assay on SR is 0.785 µM (active); in the assay on SNB-75, 5.19 µM (inactive); with UACC-62, > 10 µM (inactive); in the assay on A498, > 10 µM (inactive); in the assay with SK-MEL-5, > 10 µM (inactive); with Hs-578T, > 10 µM (inactive). Moreover, the GI50 in the assay on Malme-3M, with K562, in the assay with PC-3, with OVCAR-4, in the assay on RXF 393 and with A549 was > 10 µM (inactive) each time. Also, the GI50 with EKVX, in the assay on HOP-92, with SK-OV-3, with 786-0, in the assay on BT-549 and with HCT-116 was > 10 µM (inactive) in each case. Besides, the GI50 with U-251 and in the assay with NCI-H226 was > 10 µM (inactive) each time.
For the compound `CCCCCC(O)(CCCCC)CCCCCCCCC1=C(O)C(=O)c2ccccc2C1=O`, the GI50 was 3.44 µM (inactive) in the assay with SR; 28.1 µM (inactive) with SNB-75; 8.17 µM (inactive) in the assay on UACC-62; 13.3 µM (inactive) in the assay on A498; 3.62 µM (inactive) in the assay with SK-MEL-5; 16.1 µM (inactive) in the assay on Hs-578T. The GI50 is 11.5 µM (inactive) with Malme-3M; 3.08 µM (inactive) in the assay on K562; 7.5 µM (inactive) with PC-3; 9.79 µM (inactive) in the assay on OVCAR-4; 12.9 µM (inactive) with RXF 393; 9.64 µM (inactive) in the assay with A549. The GI50 in the assay on EKVX is 10.7 µM (inactive); in the assay with HOP-92, 14.6 µM (inactive); in the assay on SK-OV-3 it was 15.6 µM (inactive); in the assay on 786-0, 6.32 µM (inactive); in the assay on BT-549, 14.7 µM (inactive); in the assay on HCT-116, 3.83 µM (inactive). Besides, the values for the GI50 in the assay with U-251 and with NCI-H226 were 7.73 µM (inactive) and 14 µM (inactive), respectively.
In the case of `C[n+]1cccc(/C=C/c2ccc3cccc(O)c3n2)c1`, the GI50 in the assay on SR was > 100 µM (inactive); in the assay with SNB-75, > 100 µM (inactive); in the assay on UACC-62 it was > 100 µM (inactive); in the assay with A498, > 100 µM (inactive); in the assay on SK-MEL-5, 37.1 µM (inactive); in the assay on Hs-578T, 65.5 µM (inactive). The GI50 with Malme-3M is 19.3 µM (inactive); in the assay on K562, 50.9 µM (inactive); in the assay on PC-3, > 100 µM (inactive); in the assay on OVCAR-4, > 100 µM (inactive); in the assay on RXF 393 it was > 100 µM (inactive); in the assay with A549, 39.9 µM (inactive). Besides, the GI50 is > 100 µM (inactive) in the assay with EKVX; > 100 µM (inactive) in the assay with HOP-92; > 100 µM (inactive) with SK-OV-3; > 100 µM (inactive) in the assay with 786-0; 84.9 µM (inactive) in the assay on BT-549; > 100 µM (inactive) in the assay on HCT-116. For the same compound, the figures for the GI50 in the assay with U-251 and with NCI-H226 were 49.2 µM (inactive) and > 100 µM (inactive), respectively.
For `Cc1ccnc2[nH]c(-c3ccccc3)cc(=O)c12`, the GI50 is 0.00103 µM (active) in the assay with SR; 0.00621 µM (active) with SNB-75; 0.00535 µM (active) in the assay on UACC-62; > 10 µM (inactive) in the assay on A498; 0.00387 µM (active) in the assay on SK-MEL-5; 0.0114 µM (active) with Hs-578T. For the same compound, the GI50 in the assay with Malme-3M is 0.0092 µM (active); with K562, 0.00281 µM (active); in the assay with PC-3, 0.00548 µM (active); with OVCAR-4 it was 68.7 µM (inactive); in the assay with RXF 393 it was 0.0192 µM (active); with A549 it was 0.0153 µM (active). The GI50 in the assay on EKVX is 0.3 µM (active); in the assay with HOP-92, 0.0524 µM (active); in the assay with SK-OV-3 it was 0.0136 µM (active); in the assay with 786-0 it was 0.0124 µM (active); with BT-549, 19 µM (inactive); with HCT-116 it was 0.00396 µM (active). Besides, the values for the GI50 in the assay with U-251 and in the assay on NCI-H226 were 0.00552 µM (active) and 0.0246 µM (active), respectively.
As for `Cc1nc(C)c(N2CCN(S(=O)(=O)N(Cc3ccccc3)Cc3ccccc3)CC2)c(O)n1`, the GI50 with SR is > 100 µM (inactive); with SNB-75 it was 5.31 µM (inactive); with UACC-62, 5.12 µM (inactive); in the assay with A498, > 51.9 µM (inactive); with SK-MEL-5, > 100 µM (inactive); in the assay on Hs-578T, 3.4 µM (inactive). The GI50 was > 100 µM (inactive) with Malme-3M; > 100 µM (inactive) in the assay on K562; 41.8 µM (inactive) in the assay with PC-3; 0.836 µM (active) in the assay with OVCAR-4; 11.2 µM (inactive) in the assay with RXF 393; > 100 µM (inactive) with A549. Also, the GI50 in the assay with EKVX is > 60 µM (inactive); with HOP-92, 9.73 µM (inactive); in the assay with SK-OV-3, 7.76 µM (inactive); with 786-0 it was 6.64 µM (inactive); with BT-549, > 57.4 µM (inactive); with HCT-116 it was 53 µM (inactive). The results for the GI50 in the assay with U-251 and in the assay on NCI-H226 were 5.21 µM (inactive) and 0.279 µM (active), respectively.
As to `O=NN(Cc1ccc(Cl)cc1)C(C(=O)O)c1ccccc1` (stereo not given), the GI50 in the assay with SR, with SNB-75, in the assay with UACC-62, with A498, with SK-MEL-5 and in the assay with Hs-578T was > 100 µM (inactive) in each case. In addition, the GI50 with Malme-3M, with K562, in the assay with PC-3, in the assay with OVCAR-4, with RXF 393 and in the assay with A549 was > 100 µM (inactive) in each case. Besides, the GI50 with EKVX, in the assay with HOP-92, in the assay on SK-OV-3, in the assay with 786-0, in the assay on BT-549 and in the assay with HCT-116 was > 100 µM (inactive) each time. Also, the GI50 in the assay on U-251 and in the assay with NCI-H226 was > 100 µM (inactive) throughout.
With `O=C(O)c1c2c(cc3c1CC1(Cc4cc5c(cc4C1=O)CCC5)C3)CCC2` (stereo not given), the GI50 in the assay on SR was 20.7 µM (inactive); in the assay with SNB-75 it was > 100 µM (inactive); in the assay on UACC-62, > 100 µM (inactive); in the assay on A498, > 100 µM (inactive); in the assay with SK-MEL-5, > 100 µM (inactive); in the assay with Hs-578T it was > 100 µM (inactive). Also, the GI50 is > 100 µM (inactive) in the assay on Malme-3M; 52.4 µM (inactive) in the assay on K562; > 100 µM (inactive) in the assay with PC-3; 52.2 µM (inactive) in the assay with OVCAR-4; 92.9 µM (inactive) in the assay with RXF 393; 54.8 µM (inactive) in the assay on A549. The GI50 with EKVX was 87.5 µM (inactive); with HOP-92, > 100 µM (inactive); with SK-OV-3, > 100 µM (inactive); in the assay on 786-0 it was > 100 µM (inactive); with BT-549, 86.3 µM (inactive); in the assay with HCT-116, 87.5 µM (inactive). Further, the GI50 in the assay on U-251 is 85.9 µM (inactive); with NCI-H226, > 100 µM (inactive).
Turning to `COc1ccc(CNC2=Nc3ccncc3S(=O)(=O)N2c2ccccc2)cc1`, the GI50 with SR is 23.3 µM (inactive); in the assay on SNB-75, 39.1 µM (inactive); in the assay on UACC-62, 40.2 µM (inactive); in the assay on A498, 35.9 µM (inactive); in the assay on SK-MEL-5, 19 µM (inactive); in the assay on Hs-578T, 33.8 µM (inactive). The GI50 is 49.9 µM (inactive) in the assay with Malme-3M; 29 µM (inactive) in the assay on K562; 53.6 µM (inactive) with PC-3; 37.4 µM (inactive) in the assay on OVCAR-4; 50.7 µM (inactive) in the assay on RXF 393; 40.6 µM (inactive) in the assay on A549. For the same compound, the GI50 is 65 µM (inactive) in the assay on EKVX; 29.9 µM (inactive) in the assay on HOP-92; > 100 µM (inactive) in the assay on SK-OV-3; 47.4 µM (inactive) in the assay with 786-0; 23.2 µM (inactive) in the assay with BT-549; 36.5 µM (inactive) in the assay with HCT-116. For the same compound, the GI50 with U-251 is 68.1 µM (inactive); in the assay with NCI-H226, 17 µM (inactive).
Take `CCOC(=O)C(=CNc1ccc(NC2=NCC(C)S2)cc1)C(=O)OCC` (stereo not given): the GI50 with SR is 22.3 µM (inactive); in the assay with SNB-75 it was 22.1 µM (inactive); in the assay on UACC-62, 11 µM (inactive); in the assay with A498, 28.8 µM (inactive); with SK-MEL-5, 16.5 µM (inactive); in the assay on Hs-578T, 25.5 µM (inactive). Also, the GI50 in the assay on Malme-3M was 24.3 µM (inactive); with K562 it was 0.382 µM (active); with PC-3, 16.1 µM (inactive); with OVCAR-4, 9.62 µM (inactive); with RXF 393, 30.5 µM (inactive); in the assay on A549, 35.6 µM (inactive). The GI50 is 37.3 µM (inactive) in the assay with EKVX; 30.4 µM (inactive) with HOP-92; 60 µM (inactive) with SK-OV-3; 26.1 µM (inactive) with 786-0; 15.2 µM (inactive) in the assay on BT-549; 35.2 µM (inactive) in the assay with HCT-116. The GI50 in the assay on U-251 is 26.2 µM (inactive); with NCI-H226 it was 42.4 µM (inactive).
For the compound `CC(=O)c1cc2c(s1)C(=O)c1scc(C(C)=O)c1C2=O`, the GI50 with SR is 0.107 µM (active); in the assay with SNB-75, 0.598 µM (active); in the assay with UACC-62, 0.26 µM (active); with A498, 2.34 µM (inactive); with SK-MEL-5, 0.327 µM (active); in the assay on Hs-578T, 0.279 µM (active). Moreover, the GI50 is 0.385 µM (active) in the assay on Malme-3M; 0.272 µM (active) in the assay on K562; 0.605 µM (active) in the assay on PC-3; 0.197 µM (active) in the assay on OVCAR-4; 0.348 µM (active) in the assay with RXF 393; 1.41 µM (inactive) with A549. Also, the GI50 is 0.485 µM (active) in the assay on EKVX; 0.318 µM (active) in the assay with HOP-92; 1.96 µM (inactive) in the assay on SK-OV-3; 0.724 µM (active) with 786-0; 1.12 µM (active) in the assay on BT-549; 0.293 µM (active) in the assay with HCT-116. The values for the GI50 in the assay with U-251 and in the assay on NCI-H226 were 0.228 µM (active) and 1.69 µM (inactive), respectively.

For the origin of these results see ChEMBL document CHEMBL1201862, “PubChem BioAssay data set” (2004).
